From ChEMBL document CHEMBL1201862, “PubChem BioAssay data set” (2004) come the findings set out here.

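Each compound was tested at five concentrations against cells in 96-well plates for 48 hours. GI50: concentration for 50% inhibition of growth.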 Activity calls are given as the source filed them. Cut-off read from the data, not from the text of the source: active = GI50 up to about 1.1 µM and inactive = higher.

Among the test systems are A549; CCRF-CEM; COLO 205; HCT-116; HL-60; HOP-62; IGROV-1; MCF7; MDA-MB-435; MOLT-4; Malme-3M; NCI-H23; SF-295; SF-539; SN12C; SNB-75; SW-620; T47D; SK-MEL-5.
Holding throughout (test): inhibition of tumour cell growth, NCI panel, 48 h

Consider `O=[N+]([O-])/C(Cl)=C(\NCCN/C(C(Cl)=C(Cl)Cl)=C(/Cl)[N+](=O)[O-])C(Cl)=C(Cl)Cl`, for which the GI50 in the assay with A549 was 45.2 µM (inactive); with CCRF-CEM, 27 µM (inactive); in the assay on COLO 205 it was 36.4 µM (inactive); in the assay on HCT-116, 39.1 µM (inactive); with HL-60 it was 25.6 µM (inactive); in the assay with HOP-62, 71.8 µM (inactive). Further, the GI50 was 62.7 µM (inactive) with IGROV-1; 47.6 µM (inactive) in the assay with MCF7; 87.1 µM (inactive) in the assay on MDA-MB-435; 22 µM (inactive) in the assay with MOLT-4; 46.5 µM (inactive) in the assay with Malme-3M; 28.7 µM (inactive) in the assay on NCI-H23. For the same molecule, the GI50 was 39.7 µM (inactive) in the assay with SF-295; > 100 µM (inactive) in the assay with SF-539; 70.5 µM (inactive) in the assay on SN12C; 35.5 µM (inactive) in the assay on SNB-75; 47.5 µM (inactive) with SW-620; 51.2 µM (inactive) in the assay with T47D.

As for `COc1cccc(C(C#N)NC23CC4CC(CC(C4)C2)C3)c1` (configuration not stated), the GI50 in the assay with A549, with CCRF-CEM, in the assay with COLO 205, in the assay on HCT-116, in the assay with HL-60 and with HOP-62 was > 100 µM (inactive) throughout. For the same molecule, the GI50 in the assay with IGROV-1, in the assay with MCF7, in the assay with MDA-MB-435, in the assay on MOLT-4, in the assay on Malme-3M and with NCI-H23 was > 100 µM (inactive) each time. In addition, the GI50 with SF-295, in the assay with SF-539, in the assay on SK-MEL-5, in the assay with SN12C, with SNB-75 and with SW-620 was > 100 µM (inactive) throughout. Moreover, the GI50 with T47D is > 100 µM (inactive).

Consider `CCC(=O)Nc1ccc(/N=C/c2cccc(Oc3ccccc3)c2)cc1`, for which the GI50 in the assay with A549 was > 100 µM (inactive); in the assay on CCRF-CEM, 12.6 µM (inactive); with COLO 205, 44.6 µM (inactive); in the assay with HCT-116 it was 39.8 µM (inactive); in the assay with HL-60, 26.7 µM (inactive); in the assay on HOP-62, 37.2 µM (inactive). Besides, the GI50 in the assay with IGROV-1 is 63.4 µM (inactive); with MCF7, 44.1 µM (inactive); in the assay with MDA-MB-435, 47.3 µM (inactive); with MOLT-4, 23.9 µM (inactive); in the assay on Malme-3M, > 100 µM (inactive); in the assay with NCI-H23, > 100 µM (inactive). Moreover, the GI50 is > 100 µM (inactive) in the assay on SF-295; 16.4 µM (inactive) with SF-539; 33 µM (inactive) with SK-MEL-5; > 100 µM (inactive) with SN12C; > 100 µM (inactive) in the assay with SNB-75; 37 µM (inactive) with SW-620. In addition, the GI50 in the assay with T47D is 91 µM (inactive).

Consider `CC(=O)O[C@H]1CC[C@@]2(C)C(=CC[C@@H]3[C@@H]2CC[C@]2(C)c4c(cc(C#N)c(=N)n4C(C)=O)C[C@@H]32)C1`, for which the GI50 in the assay with A549 was 23 µM (inactive); in the assay on CCRF-CEM, 3.6 µM (inactive); with COLO 205 it was 16.1 µM (inactive); in the assay on HCT-116 it was 14.8 µM (inactive); with HL-60 it was 14.6 µM (inactive); in the assay with HOP-62, 24.2 µM (inactive). Further, the GI50 in the assay on IGROV-1 was 22.2 µM (inactive); in the assay on MCF7, 22.3 µM (inactive); with MDA-MB-435, 19.6 µM (inactive); with MOLT-4, 12.2 µM (inactive); with Malme-3M, 17.2 µM (inactive); in the assay with NCI-H23, 15.3 µM (inactive). The GI50 was 11.4 µM (inactive) with SF-295; 15.5 µM (inactive) in the assay with SK-MEL-5; 17.4 µM (inactive) in the assay on SN12C; 19.1 µM (inactive) with SNB-75; 19.4 µM (inactive) in the assay on SW-620; 17.6 µM (inactive) with T47D.

On to `c1ccc(C2=Nc3cccc4cccc(c34)N2)cc1`, for which the GI50 in the assay on A549 was 56.9 µM (inactive); in the assay with CCRF-CEM, 3.82 µM (inactive); in the assay with COLO 205, 18.6 µM (inactive); in the assay on HCT-116 it was 23.3 µM (inactive); in the assay on HL-60 it was 2.88 µM (inactive); in the assay on HOP-62 it was > 100 µM (inactive). Also, the GI50 in the assay with IGROV-1 was > 54.6 µM (inactive); in the assay with MCF7, 40.8 µM (inactive); with MDA-MB-435, 48.8 µM (inactive); with Malme-3M it was 43.5 µM (inactive); in the assay on NCI-H23 it was > 60.5 µM (inactive); in the assay with SF-295, 58.2 µM (inactive). Besides, the GI50 with SF-539 is 56.2 µM (inactive); in the assay with SK-MEL-5 it was 56.2 µM (inactive); in the assay with SN12C, > 78.7 µM (inactive); in the assay on SNB-75, > 90.6 µM (inactive); with SW-620, 20.4 µM (inactive); with T47D it was 4.63 µM (inactive).

Regarding `COc1ccc(/C=C2\N=C(c3ccccc3)N(C3Nc4cc5c(cc4S3)NC(N3C(=O)/C(=C/c4ccc(OC)cc4)N=C3c3ccccc3)S5)C2=O)cc1` (configuration not stated), the GI50 with A549 is 36.8 µM (inactive); in the assay with HCT-116 it was 42.3 µM (inactive); in the assay with HL-60 it was 33.2 µM (inactive); in the assay with HOP-62, 41.2 µM (inactive); in the assay with IGROV-1, > 100 µM (inactive); with MCF7 it was 43.6 µM (inactive). Also, the GI50 with MDA-MB-435 is 56.6 µM (inactive); in the assay with MOLT-4, 23.6 µM (inactive); in the assay with NCI-H23, 42.9 µM (inactive); in the assay with SF-295, > 100 µM (inactive); in the assay on SF-539 it was 11.6 µM (inactive); in the assay with SK-MEL-5, 37.2 µM (inactive). In addition, the figures for the GI50 with SNB-75, with SW-620 and in the assay with T47D were 22.5 µM (inactive), 61.5 µM (inactive) and 65.3 µM (inactive), respectively.

Take `COc1cc2c(/C=C3/C(=O)Nc4cccc(Cl)c43)c(Cl)[nH]c2cc1C`: the GI50 with A549 was 2.09 µM (inactive); in the assay with CCRF-CEM it was 1.56 µM (inactive); in the assay with COLO 205 it was 1.95 µM (inactive); in the assay with HCT-116, 1.49 µM (inactive); in the assay on HL-60, 1.82 µM (inactive); in the assay on HOP-62 it was 2.15 µM (inactive). In addition, the GI50 in the assay with IGROV-1 is 1.59 µM (inactive); with MCF7 it was 2.05 µM (inactive); in the assay on MDA-MB-435, 1.57 µM (inactive); in the assay with MOLT-4, 0.366 µM (active); in the assay on NCI-H23 it was 2.51 µM (inactive); in the assay on SF-295, 1.69 µM (inactive). Moreover, the GI50 is 1.6 µM (inactive) in the assay on SF-539; 3.5 µM (inactive) in the assay on SK-MEL-5; 1.32 µM (inactive) in the assay on SN12C; 1.44 µM (inactive) in the assay on SNB-75; 2.24 µM (inactive) in the assay on SW-620; 1.43 µM (inactive) in the assay with T47D.

In the case of `O=c1c2cc(I)ccc2nc(SCc2nncs2)n1Cc1ccccc1`, the GI50 in the assay on A549 was 22.9 µM (inactive); with CCRF-CEM it was 5.71 µM (inactive); in the assay with COLO 205 it was 20.2 µM (inactive); in the assay on HCT-116, 11.6 µM (inactive); in the assay with HL-60, 22.1 µM (inactive); with HOP-62, 20.3 µM (inactive). Further, the GI50 in the assay with IGROV-1 was 3.89 µM (inactive); with MCF7, 35.6 µM (inactive); in the assay on MDA-MB-435, 19.2 µM (inactive); with MOLT-4 it was 8.3 µM (inactive); in the assay on NCI-H23, 25.6 µM (inactive); in the assay on SF-295, 13.2 µM (inactive). Moreover, the GI50 in the assay on SF-539 was 22.8 µM (inactive); with SK-MEL-5 it was 6.71 µM (inactive); in the assay on SN12C it was 23.9 µM (inactive); in the assay on SNB-75, 19.1 µM (inactive); with SW-620, > 100 µM (inactive); in the assay on T47D it was 8.93 µM (inactive).

With `Cc1cc(S(=O)(=O)Nc2nc3ccccc3[nH]2)c(S)cc1Cl`, the GI50 was 45.2 µM (inactive) with A549; 26.6 µM (inactive) in the assay on CCRF-CEM; 82.2 µM (inactive) with COLO 205; 22.4 µM (inactive) in the assay on HCT-116; 35.5 µM (inactive) in the assay on HL-60; 39.4 µM (inactive) in the assay on HOP-62. Moreover, the GI50 in the assay on IGROV-1 is 61.5 µM (inactive); in the assay on MCF7, 71 µM (inactive); in the assay on MDA-MB-435 it was 49.8 µM (inactive); in the assay with MOLT-4 it was 30.4 µM (inactive); in the assay with NCI-H23, 67.9 µM (inactive); in the assay on SF-295, 53.1 µM (inactive). The GI50 is > 100 µM (inactive) with SF-539; 35.2 µM (inactive) with SK-MEL-5; > 100 µM (inactive) in the assay on SN12C; > 100 µM (inactive) in the assay with SNB-75; 37.6 µM (inactive) in the assay with SW-620; 41.4 µM (inactive) in the assay with T47D.

As to `Cc1ccc(S(=O)(=O)OC2=C/C(=N\c3onc(C)c3C)c3ccccc3C2=O)cc1`, the GI50 with A549 was 51.1 µM (inactive); in the assay with COLO 205, 86.5 µM (inactive); in the assay with HCT-116, 17.6 µM (inactive); with HL-60, 6.43 µM (inactive); in the assay on HOP-62, 23.6 µM (inactive); in the assay with IGROV-1, > 10 µM (inactive). In addition, the GI50 was 17.3 µM (inactive) in the assay with MCF7; 16.1 µM (inactive) with MDA-MB-435; 4.8 µM (inactive) with MOLT-4; 17.9 µM (inactive) in the assay on Malme-3M; 22.6 µM (inactive) with NCI-H23; 32.4 µM (inactive) with SF-295. For the same molecule, the GI50 with SF-539 is 31.8 µM (inactive); with SK-MEL-5, 18.3 µM (inactive); in the assay with SN12C, 18.7 µM (inactive); in the assay on SNB-75 it was 45.7 µM (inactive); in the assay with SW-620, 28.2 µM (inactive); in the assay on T47D, 24.2 µM (inactive).

`O=C1N[C@@H]2O[C@H](CNC(=O)c3cc(Br)c[nH]3)C[C@]2(O)N1.O=C1N[C@H]2O[C@H](CNC(=O)c3cc(Br)c[nH]3)C[C@@]2(O)N1`: the GI50 in the assay on A549, in the assay with COLO 205, with HCT-116, in the assay with HL-60, in the assay with HOP-62 and in the assay on IGROV-1 was > 100 µM (inactive) each time. In addition, the GI50 with MCF7, with MDA-MB-435, in the assay with MOLT-4, with Malme-3M, in the assay on NCI-H23 and with SF-295 was > 100 µM (inactive) in each case. Moreover, the GI50 with SF-539, with SK-MEL-5, with SN12C, in the assay on SNB-75, with SW-620 and in the assay with T47D was > 100 µM (inactive) each time.
